Like-named read-outs stand apart in the source and are kept apart here.
Experiments:
[1] = target: T1, MAO-B (Homo sapiens, UniProt P27338); conditions: from studies; cited from earlier work
T1 sequence (P27338 1-520): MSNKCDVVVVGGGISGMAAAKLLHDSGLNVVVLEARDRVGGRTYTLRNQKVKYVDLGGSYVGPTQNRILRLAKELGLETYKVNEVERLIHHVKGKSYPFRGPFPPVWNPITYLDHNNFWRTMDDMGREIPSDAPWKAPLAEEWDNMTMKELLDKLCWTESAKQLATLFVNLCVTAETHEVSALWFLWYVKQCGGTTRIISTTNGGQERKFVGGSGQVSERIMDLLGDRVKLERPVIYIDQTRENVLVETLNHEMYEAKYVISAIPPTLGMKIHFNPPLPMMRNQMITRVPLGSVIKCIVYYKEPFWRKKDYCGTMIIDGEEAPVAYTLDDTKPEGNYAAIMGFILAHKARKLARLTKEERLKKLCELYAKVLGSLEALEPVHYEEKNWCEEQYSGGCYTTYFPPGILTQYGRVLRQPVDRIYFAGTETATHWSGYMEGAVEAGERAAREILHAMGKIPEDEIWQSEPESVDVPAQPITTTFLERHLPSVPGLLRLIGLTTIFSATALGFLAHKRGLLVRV

[2] = target: T2, MAO-A (monoamine oxidase A) (Homo sapiens, UniProt P21397); conditions: from studies; cited from earlier work
T2 sequence (P21397 1-527): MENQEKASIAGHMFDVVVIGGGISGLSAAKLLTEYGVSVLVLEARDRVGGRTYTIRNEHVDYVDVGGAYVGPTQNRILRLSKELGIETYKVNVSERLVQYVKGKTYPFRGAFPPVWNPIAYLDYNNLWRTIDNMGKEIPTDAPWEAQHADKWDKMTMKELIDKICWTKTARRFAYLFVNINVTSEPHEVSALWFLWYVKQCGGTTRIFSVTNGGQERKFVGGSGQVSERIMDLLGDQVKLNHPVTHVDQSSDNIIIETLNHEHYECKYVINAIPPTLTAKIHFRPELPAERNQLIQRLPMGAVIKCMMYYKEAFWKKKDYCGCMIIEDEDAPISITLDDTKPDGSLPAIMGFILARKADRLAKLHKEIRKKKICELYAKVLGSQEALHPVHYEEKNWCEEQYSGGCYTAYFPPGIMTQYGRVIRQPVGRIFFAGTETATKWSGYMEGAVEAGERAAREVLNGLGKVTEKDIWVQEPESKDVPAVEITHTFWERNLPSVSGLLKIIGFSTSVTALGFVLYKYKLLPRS

[3] = tested on: mouse platelets; assay: Ca2+ mobilization (FLIPR), mouse platelets; type: cell-based
Method: FIG. 15 is an exemplary embodiment of EN460 affecting the basal level of cytosolic Ca2+ and inhibiting Ca2+ mobilization in accordance with the present disclosure. WT mouse platelets were pretreated with vehicle (0.1% DMSO) or 5-10 μM EN460, followed by measuring Ca2+ release and influx after stimulation with 2 μM A23187 and the addition of 1 mM CaCl2). The data represent the mean±SD (n=3). P values determined by ANOVA and Dunnett's test.
Ca^2+ mobilization was measured as described previously. WT control and Ero1α-null platelets (1×10^8/mL) were suspended in HEPES-Tyrode buffer, pH 7.4. Cells were incubated with a Ca^2+ dye (FLIPR Ca^2+5 assay kit; Molecular Devices) for 30 minutes at 37° C. in the dark, followed by stimulation with thrombin (0.1 U/mL), A23187 (2 μM) or thapsigargin (10-20 μM). After measuring Ca^2+ release, 1 mM CaCl2) was immediately added to assess Ca^2+ influx. In other experiments, Ca^2+ dye-labeled human and WT mouse platelets were incubated with a vehicle or an inhibitor for 10 minutes at 37° C. Cytosolic Ca^2+ levels were measured using a FlexStation3 microplate reader with an excitation wavelength of 485 nm and an emission wavelength of 525 nm. Ca^2+ mobilization was quantified by the area under the curve and expressed as a relative fluorescence unit.

[4] = target: T3, ERO1α (Homo sapiens, UniProt Q96HE7); assay: ERO1α activity assay; type: biochemical
T3 sequence (Q96HE7 24-468): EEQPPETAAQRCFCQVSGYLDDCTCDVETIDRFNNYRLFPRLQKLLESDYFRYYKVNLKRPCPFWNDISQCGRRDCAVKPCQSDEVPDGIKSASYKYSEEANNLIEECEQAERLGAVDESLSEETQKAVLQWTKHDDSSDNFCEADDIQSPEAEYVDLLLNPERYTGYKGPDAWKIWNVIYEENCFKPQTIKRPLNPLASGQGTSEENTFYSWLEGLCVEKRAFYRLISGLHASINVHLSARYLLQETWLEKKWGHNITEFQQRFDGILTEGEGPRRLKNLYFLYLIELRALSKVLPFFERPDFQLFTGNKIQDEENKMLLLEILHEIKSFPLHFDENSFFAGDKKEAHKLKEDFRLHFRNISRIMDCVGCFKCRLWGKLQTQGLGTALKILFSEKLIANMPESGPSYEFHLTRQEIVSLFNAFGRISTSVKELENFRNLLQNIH
Description: FIG. 17(A-F) is an exemplary embodiment of identification of novel ERO1α inhibitors by high throughput screening in accordance with the present disclosure. FIG. 17A: A scheme of an ERO1α activity assay. FIG. 17B: Screening of chemical libraries in the ERO1α activity assay. FIG. 17C: The inhibitory effect of selected compounds on ERO1α activity. FIG. 17D: The inhibitory effect of selected compounds on PDI activity. FIG. 17E: The inhibitory effect of selected compounds on H2O2 activity. FIG. 17F: The inhibitory effect of selected compounds on thiol-reacting activity. The data represent the mean±SD (n=3). *P<0.05, **P<0.01, ***P<0.001, and ****P<0.0001 vs. vehicle control, Student's t-test.
To identify a novel ERO1α inhibitor, 5800 compounds were screened using an ERO1α activity assay (FIG. 17A and FIG. 17B). […] The selected compounds were further tested in assays measuring PDI, antioxidant, and thiol-reacting activities (FIG. 17D through FIG. 17F). […] B12 inhibited P-selectin exposure and αIIbβ3 activation in agonist-activated mouse and human platelets in a concentration-dependent manner (FIG. 18B through FIG. 18E).

[5] = target: T2, MAO-A (monoamine oxidase A); assay: MAO-A activity assay; type: biochemical
[6] = tested on: platelets; assay: Platelet activation and aggregation, platelet source not stated; type: cell-based; conditions: 5-10 microM
Description: As described herein, small molecule ERO1α inhibitors were identified by performing a high throughput screen using a ChemDiv library. […] Furthermore, intravenous injection of B112-5 reduced the infarct volume in a mouse model of ischemic stroke.

| SMILES | IC50 [1] [µM] | IC50 [2] [µM] | Ca2+ release and influx ([3]; A23187 stimulation, 5-10 μM) | basal level of cytosolic Ca2+ ([3]; concentration-dependent, 5-10 μM, 3 to 10 μM) | IC50 ([4]; read-out: IC50, ERO1α activity) [µM] | IC50 ([4]; read-out: IC50, ERO1α inhibitor) [µM] | effect on MAO-A activity ([5]; 10 μM) | inhibition of MAO-A activity ([5]; 30 μM) [%] | MAO-A inhibition at 100 μM (%) ([5]; 100 μM) | platelet activation and aggregation [6] | Ca2+ release and influx ([3]; mouse platelets, thrombin or A23187) |
| --- | --- | --- | --- | --- | --- | --- | --- | --- | --- | --- | --- |
| O=C(O)c1cc(N2N=C(C(F)(F)F)/C(=C/c3ccc(-c4ccccc4)o3)C2=O)ccc1Cl [EN460] | 30.6 | 7.9 | diminished | increased | – | – | – | – | – | – | – |
| O=C(CSc1nc(O)cc(O)n1)N1c2ccccc2Sc2ccccc21 [B12-5] | – | – | – | – | 7.9 | 7.9 | without affecting | 30 | 50.7 ± 9 | significantly inhibited | dose dependently inhibited |

Source: US20240366624A1, “METHODS AND COMPOSITIONS FOR TREATING THROMBOTIC DISEASE” (Washington University, priority 2023, published 2024)
